In patent US20230190852A1, “COMPOSITIONS AND METHODS FOR JOINT HEALTH” (Unigen, Inc., priority 2013, published 2023):
Marks after values point to notes of the source that are not given here.

Tests used:
[1] = system: Rabbit cartilage explants; assay: Ex vivo glycosaminoglycans (GAG) release assay; format: cell-based; settings: for activity at 6.25 µg/mL / activity at 12.5 µg/mL / activity at 25 µg/mL / activity at 50 µg/mL / activity at 100 µg/mL: Oryctolagus cuniculus, 24 h; for activity at 6.25 µg/mL: 6.25 μg/ml; for activity at 12.5 µg/mL: 12.5 μg/ml; for activity at 25 µg/mL: 25 μg/ml; for activity at 50 µg/mL: 50 μg/ml; for protective effect on rhIL-1α-mediated PG degradation / GAG release: rhIL-1α 5 ng/ml; for activity at 100 µg/mL: 100 μg/ml
Description: Articular cartilage from hock joints of rabbits (2.5 kg body weight) was removed immediately after each animal was sacrificed and articular cartilage explants were obtained by following the method described by Sandy et al. (Biochem. Biophy Acta 543:36, 1978). Briefly, after the articular surfaces were surgically exposed under sterile conditions, approximately 200-220 mg articular surfaces per joint were dissected and submerged into complete medium (DMEM, supplemented with heat inactivated 5% FBS; penicillin 100 U/ml; streptomycin 100 ug/ml). They were then rinsed several times with the complete medium and incubated for 1 to 2 days at 37° C. in a humidified 5% CO2/95% air incubator for stabilization. The complete medium was replaced with a basal medium (DMEM, supplemented with heat-inactivated 1% FBS, 10 mM HEPES, and penicillin 100 U/ml streptomycin 100 μg/ml). Approximately 30 mg cartilage pieces (2×3×0.35 mm/piece) were placed in 24-well plates and treated with given concentrations of test agents. After pretreatment for 1 h, 5 ng/ml of rhIL-1α was added to the culture medium and further incubated at 37° C. in a humidified 5% CO2/95% air incubator. The culture medium was collected 24 h later and stored at −20° C. until assay.
The amount of sulphated GAGs (e.g., released from proteoglycans) in the medium at the end of the reaction reflects the amount of articular cartilage degradation, which was determined using the commercially available 1,9-dimethy-methylene blue method according to the instructions of the manufacturer (Blyscan™ assay, Accurate Chemical and Scientific Corp., Westbury, N.Y.).

[2] = system: Lewis rats; assay: Carrageenan-induced rat paw edema model (paw edema and pain sensitivity); format: in vivo; settings: for Pain sensitivity, percent change of vehicle / Paw edema, percent change of vehicle: 100 mg/kg oral 1 hr after carrageenan, female Lewis rats; for Pain sensitivity (Analgesia), percent change vs. vehicle, 1 hr / Paw Edema (Inflammation), percent change vs. vehicle, 1 hr: 1 hr after treatment; for Pain sensitivity (Analgesia), percent change vs. vehicle, 3 hr / Paw Edema (Inflammation), percent change vs. vehicle, 3 hr: 3 hr after treatment; for Pain sensitivity (Analgesia), percent change vs. vehicle, 5 hr / Paw Edema (Inflammation), percent change vs. vehicle, 5 hr: 5 hr after treatment; for analgesic and anti-inflammatory activity: oral, rosmarinic acid 200 mg/kg, eriocitrin 100 mg/kg, NAG 166 mg/kg
Description: Local inflammation was induced by intraplantar injection of carrageenan λ (Sigma, St. Louis, Mo.; 100 μl of 1% [w/v] in saline) into the plantar surface of right hind paw of sedated rat (with 2.5% isoflurane) at time 0 (T=0) (Gamache et al., J Neurosurg. 65:679, 1986; Guay et al., J. Biol. Chem. 279:24866, 2004; Chou et al., Anesth. Analg. 97:1724, 2003). Rats were acclimated in a procedure room for 20-30 minutes before each measurement was taken. Allodynia was evaluated by measuring responsiveness to the tip of a Randell-Selitto paw pressure test applied perpendicular to the central plantar surface of the right hind paw. A positive response to the applied pressure, noted by sharp withdrawal of the paw, was recorded automatically by an electronic Von Frey Anesthesiometer (2390 series Electrovonfrey, IITC, Woodland Hills, Calif.) (Vivancos et al., Braz. J. Med. Biol. Res. 37:391, 2004). Mechanical allodynia was evaluated before carrageenan inoculation, and thereafter at 1 hr, 2 hr, 4 hr and 6 hr. Paw edema volume was measured with the use of Plethysmometer (IITC, Woodland Hills, Calif.; Model 520) at time 0 (before carrageenan), and then 1 hr, 2 hr, 4 hr, and 6 hr after carrageenan injection. Animals (N=5 per group) were orally gavaged with a positive control ibuprofen (Spectrum Chemical MFG, Gardena, Calif.) (100 or 200 mg/kg); test articles such as: extracts, and combinations of extracts at various doses from 100, 200, 300 to 400 mg/kg and vehicle control (propylene glycol) were given 1 hour after carrageenan inoculation unless specified otherwise.

[3] = system: Sprague-Dawley (SD) rats; assay: Monosodium iodoacetate (MIA) induced osteoarthritis rat model; format: in vivo; settings: for reduction in pain sensitivity: 10 mg/kg oral per day; for Pain sensitivity, % (of week 0 mean) / Pain sensitivity, Mean: oral 10 mg/kg
Description: The animals were randomized and assigned to treatment groups before the study began. After anesthetization with isoflurane, rats were injected with 50 μl containing 1 mg Monosodium iodoacetate (Sigma, St. Louis, Mo.; lot #SLBB6147V) using a 26 gauge needle inserted through the patellar ligament into the intra-articular space of the right knee. Normal rats were injected with an equivalent volume of saline instead of MIA. […] The first sample treatment was administered 1 hr before MIA injection. Normal and control rats were given orally an equal volume of vehicle (0.5% CMC in saline). Body weight and allodynia were measured once a week for 4 weeks. Allodynia was evaluated by measuring responsiveness to a tip of Randall-Selitto test (2390 series, IITC, Woodland Hills, Calif.) applied perpendicular to the central plantar surface of the right hind paw.
Male Sprague—Dawley (SD) rats weighing about 170 to about 230 g (6 weeks of age) were purchased and acclimated for one week. […] Each group was orally gavaged with their respective treatment. Anesthetized rats were injected with 0.8 mg of MIA in a 50 μl saline solution into the intra-articular pocket one hour after the second dose of treatments. Pain sensitivity was measured once a week using a Randall-Salitto meter and treatment lasted for 6 weeks. Body weights were measured once a week to calculate the respective weekly dosage of each group.

[4] = rabbit cartilage explants with rhIL-1α 5 ng/ml (=100)
[5] = rhIL-1α 5 ng/ml (IL-1α alone = 100)
[6] = 100 mg/kg oral, listed as eriocitrin
[7] = MIA OA rats, 10 mg/kg oral, 6 weeks, modified Mankin scoring

## COc1cc(O)c(CC=C(C)C)c2c1C(=O)CC(c1ccc(O)cc1)O2 (centres unmarked) [Compound 14, isoxanthohumol]
[1]; [4]
  activity at 6.25 µg/mL: 97.8%
  activity at 12.5 µg/mL: 73.5%
  activity at 25 µg/mL: 41.7%
  activity at 50 µg/mL: 37.3%

## CC(C)=CCC12Oc3c(c(O)cc(O)c3C3C=C(C)CC(c4ccc(O)cc4O)C3C(=O)c3ccc(O)cc3O)C(=O)C1(O)Oc1cc(O)ccc12 (centres unmarked) [Compound 15, cathayanon A]
[1]; [4]
  activity at 6.25 µg/mL: 101%
  activity at 12.5 µg/mL: 99.1%
  activity at 25 µg/mL: 81.3%
  activity at 50 µg/mL: 72.4%

## CC1(C)C=Cc2c(ccc3c2OC[C@@H](c2ccc(O)cc2O)C3)O1 [glabridin]
[1]; [4]
  activity at 6.25 µg/mL: 66.1%
  activity at 12.5 µg/mL: 47.9%
  activity at 25 µg/mL: 47.5%
  activity at 50 µg/mL: 46.3%

## Oc1cc(O)cc(/C=C/c2ccc(O)cc2O)c1 [Oxyresveratrol]
[2]; 1 hr
  Pain sensitivity, percent change of vehicle: 53.3* %
  Paw edema, percent change of vehicle: 44.7* %
[2]; 3 hr
  Pain sensitivity, percent change of vehicle: 54.8* %
  Paw edema, percent change of vehicle: 54.5* %
[2]; 5 hr
  Pain sensitivity, percent change of vehicle: 38.5* %
  Paw edema, percent change of vehicle: 38.3* %
[1]; [5]
  activity at 25 µg/mL: 59.8%
[1]
  protective effect on rhIL-1α-mediated PG degradation / GAG release: strong inhibitory effect

## COc1cc(O)c(CC=C(C)C)c(O)c1C(=O)/C=C/c1ccc(O)cc1 [Compound 13, xanthohumol]
[1]; [4]
  activity at 6.25 µg/mL: 77.4%
  activity at 12.5 µg/mL: 55.3%
  activity at 25 µg/mL: 59.2%
  activity at 50 µg/mL: 51.2%

## OC[C@H]1O[C@@H](Oc2cc(O)cc(/C=C/c3ccc(O[C@@H]4O[C@H](CO)[C@@H](O)[C@H](O)[C@H]4O)cc3O)c2)[C@H](O)[C@@H](O)[C@@H]1O [Mulberoside A, mulberroside A]
[2]; 1 hr
  Pain sensitivity, percent change of vehicle: 54.2* %
  Paw edema, percent change of vehicle: 48.4* %
[2]; 3 hr
  Pain sensitivity, percent change of vehicle: 52.2* %
  Paw edema, percent change of vehicle: 50.6* %
[2]; 5 hr
  Pain sensitivity, percent change of vehicle: 35.5* %
  Paw edema, percent change of vehicle: 37.3* %
[1]; [5]
  activity at 25 µg/mL: 73.1%
  activity at 50 µg/mL: 75.8%
  activity at 100 µg/mL: 70.5%
[1]
  protective effect on rhIL-1α-mediated PG degradation / GAG release: strong inhibitory effect

## CC(C)=CCc1c(-c2ccc(O)cc2O)oc2c3c(cc(O)c2c1=O)OC(C)(C)C=C3 [Morusin]
[2]; 1 hr
  Pain sensitivity, percent change of vehicle: 33.3* %
  Paw edema, percent change of vehicle: 37.3* %
[2]; 3 hr
  Pain sensitivity, percent change of vehicle: 38.5* %
  Paw edema, percent change of vehicle: 40.0* %
[2]; 5 hr
  Pain sensitivity, percent change of vehicle: 30.2* %
  Paw edema, percent change of vehicle: 38.0* %
[1]; [5]
  activity at 25 µg/mL: 48.4%
  activity at 50 µg/mL: 49.9%
  activity at 100 µg/mL: 33.6%
[1]
  protective effect on rhIL-1α-mediated PG degradation / GAG release: strong inhibitory effect

## C[C@@H]1O[C@@H](OC[C@H]2O[C@@H](Oc3cc(O)c4c(c3)O[C@H](c3ccc(O)c(O)c3)CC4=O)[C@H](O)[C@@H](O)[C@@H]2O)[C@H](O)[C@H](O)[C@H]1O [Eriocitrin]
[2]; 100 mg/kg oral
  Pain sensitivity (Analgesia), percent change vs. vehicle, 1 hr: 20.4* %
  Paw Edema (Inflammation), percent change vs. vehicle, 1 hr: 17.2%
  Pain sensitivity (Analgesia), percent change vs. vehicle, 3 hr: 36.4* %
  Paw Edema (Inflammation), percent change vs. vehicle, 3 hr: 36.0* %
  Pain sensitivity (Analgesia), percent change vs. vehicle, 5 hr: 25.2* %
  Paw Edema (Inflammation), percent change vs. vehicle, 5 hr: 30.0* %
[2]; [6]
  Pain sensitivity (Analgesia), percent change vs. vehicle, 1 hr: 20.4%
  Pain sensitivity (Analgesia), percent change vs. vehicle, 3 hr: 36.4%
  Paw Edema (Inflammation), percent change vs. vehicle, 3 hr: 36.0%
  Pain sensitivity (Analgesia), percent change vs. vehicle, 5 hr: 25.2%
  Paw Edema (Inflammation), percent change vs. vehicle, 5 hr: 30.0%
[2]
  analgesic and anti-inflammatory activity: significant anti-inflammatory and analgesic activities

## CC(C)=CCc1c(-c2ccc(O)cc2O)oc2c(C3C=C(C)CC(c4ccc(O)cc4O)C3C(=O)c3ccc(O)cc3O)c(O)cc(O)c2c1=O (centres unmarked) [Kuwanon G]
[2]; 1 hr
  Pain sensitivity, percent change of vehicle: 33.3* %
  Paw edema, percent change of vehicle: 36.5* %
[2]; 3 hr
  Pain sensitivity, percent change of vehicle: 40.5* %
  Paw edema, percent change of vehicle: 37.7* %
[2]; 5 hr
  Pain sensitivity, percent change of vehicle: 31.2* %
  Paw edema, percent change of vehicle: 29.3* %
[1]; [5]
  activity at 25 µg/mL: 56.6%
  activity at 50 µg/mL: 48%
  activity at 100 µg/mL: 44.4%

## O=C(/C=C/c1ccc(O)c(O)c1)O[C@H](Cc1ccc(O)c(O)c1)C(=O)O [RA, Rosmarinic acid]
[2]; 200 mg/kg oral
  Pain sensitivity (Analgesia), percent change vs. vehicle, 1 hr: 38.9%
  Paw Edema (Inflammation), percent change vs. vehicle, 1 hr: 29.9%
  Pain sensitivity (Analgesia), percent change vs. vehicle, 3 hr: 45.0%
  Paw Edema (Inflammation), percent change vs. vehicle, 3 hr: 35.7%
  Pain sensitivity (Analgesia), percent change vs. vehicle, 5 hr: 30.6%
  Paw Edema (Inflammation), percent change vs. vehicle, 5 hr: 34.6%
[2]
  analgesic and anti-inflammatory activity: significant anti-inflammatory and analgesic activities

## O=C(O)Cc1ccccc1Nc1c(Cl)cccc1Cl [Diclofenac]
[3]; week 5
  reduction in pain sensitivity: 20.8%
[3]; week 6
  reduction in pain sensitivity: 18.2%
[3]; G:M 500 mg/kg, Diclofenac 10 mg/kg, 6 weeks
  articular cartilage matrix integrity, total Mankin score vs. vehicle: not statistically significant
[3]; MIA OA rats, 10 mg/kg oral, 6 weeks
  Total Mankin Score: 4.9 ± 2.69
[3]; [7]
  Cellular Abnormality (0-3) histopathological score: 1.3 ± 0.67
  Safranin-O Staining (0-4) histopathological score: 1.7 ± 0.82
[3]; MIA OA rats, Week 0
  Pain sensitivity, % (of week 0 mean): 100.00%
[3]; MIA OA rats, Week 0, Randall-Salitto meter
  Pain sensitivity, Mean: 173.20
[3]; MIA OA rats, Week 1
  Pain sensitivity, % (of week 0 mean): 84.51%
[3]; MIA OA rats, Week 1, Randall-Salitto meter
  Pain sensitivity, Mean: 146.37
[3]; MIA OA rats, Week 2
  Pain sensitivity, % (of week 0 mean): 89.88%
[3]; MIA OA rats, Week 2, Randall-Salitto meter
  Pain sensitivity, Mean: 155.67
[3]; MIA OA rats, Week 3
  Pain sensitivity, % (of week 0 mean): 94.05%
[3]; MIA OA rats, Week 3, Randall-Salitto meter
  Pain sensitivity, Mean: 162.90
[3]; MIA OA rats, Week 4
  Pain sensitivity, % (of week 0 mean): 87.12%
[3]; MIA OA rats, Week 4, Randall-Salitto meter
  Pain sensitivity, Mean: 150.90
[3]; MIA OA rats, Week 5
  Pain sensitivity, % (of week 0 mean): 84.43%
[3]; MIA OA rats, Week 5, Randall-Salitto meter
  Pain sensitivity, Mean: 146.23
[3]; MIA OA rats, Week 6
  Pain sensitivity, % (of week 0 mean): 83.28%
[3]; MIA OA rats, Week 6, Randall-Salitto meter
  Pain sensitivity, Mean: 144.23
